According to ChEMBL document CHEMBL1147116 (Antimicrob Agents Chemother, 2007):
≈ marks a conversion by molar mass, not a printed value.

How the values were obtained:
[1] = tested on: Streptococcus pneumoniae; experiment: Bactericidal activity against Streptococcus pneumoniae ATCC 49619 at fAUC/MIC of 60 after 48 hrs in pharmacodynamic model; details: ATCC 49619, 48 h
[2] = tested on: Streptococcus pneumoniae; experiment: fAUC/MIC ratio of Streptococcus pneumoniae ATCC 49619 at 175 mg
[3] = tested on: Streptococcus pneumoniae; experiment: fAUC/MIC ratio of Streptococcus pneumoniae ATCC 49619 at 200 mg
[4] = tested on: Streptococcus pneumoniae; experiment: Bactericidal activity against Streptococcus pneumoniae ATCC 49619 at fAUC/MIC of 144 after 24 to 96 hrs in pharmacodynamic model
[5] = tested on: Streptococcus pneumoniae; experiment: Susceptibility of Streptococcus pneumoniae ATCC 49619 by microdilution method; assay type: functional
[6] = tested on: Streptococcus pneumoniae; experiment: Bactericidal activity against Streptococcus pneumoniae BSP-2443 at fAUC/MIC of 62 after 24 to 96 hrs in pharmacodynamic model; details: BSP2443
[7] = tested on: Streptococcus pneumoniae; experiment: Bactericidal activity against Streptococcus pneumoniae BSP-2443 at fAUC/MIC of 51 after 24 to 48 hrs in pharmacodynamic model; details: BSP2443
[8] = Peak free concentration at 175 mg/24 hrs regimen in vitro PK model; assay type: ADME
[9] = tested on: Streptococcus pneumoniae; experiment: fAUC/MIC ratio of Streptococcus pneumoniae BSP-2443 at 198 mg
[10] = tested on: Streptococcus pneumoniae; experiment: fAUC/MIC ratio of Streptococcus pneumoniae ATCC 49619 at 100 mg
[11] = Peak free concentration at 200 mg/24 hrs regimen in vitro PK model; assay type: ADME
[12] = tested on: Streptococcus pneumoniae; experiment: Bactericidal activity against Streptococcus pneumoniae ATCC 49619 at fAUC/MIC of 67 after 24 to 96 hrs in pharmacodynamic model
[13] = Peak free concentration at 150 mg/24 hrs regimen in vitro PK model; assay type: ADME
[14] = tested on: Streptococcus pneumoniae; experiment: Bactericidal activity against Streptococcus pneumoniae ATCC 49619 with parC S79Y mutation at fAUC/MIC of 60 after 72 hrs in pharmacodynamic model; details: ATCC 49619, 72 h
[15] = Half life at 400 mg/24 hrs regimen in vitro PK model; assay type: ADME
[16] = Half life at 100 mg/24 hrs regimen in vitro PK model; assay type: ADME
[17] = tested on: Streptococcus pneumoniae; experiment: fAUC/MIC ratio of Streptococcus pneumoniae BSP-2443 at 235 mg
[18] = tested on: Streptococcus pneumoniae; experiment: fAUC/MIC ratio of Streptococcus pneumoniae ATCC 49619 at 400 mg
[19] = tested on: Streptococcus pneumoniae; experiment: Bactericidal activity against Streptococcus pneumoniae ATCC 49619 with Parc S79Y mutation and gyrA S81F mutation at fAUC/MIC of 35 after 96 hrs in pharmacodynamic model; details: ATCC 49619, 96 h
[20] = tested on: Streptococcus pneumoniae; experiment: Bactericidal activity against Streptococcus pneumoniae ATCC 49619 with Parc S79Y mutation and gyrA S81F mutation at fAUC/MIC of 35 after 48 hrs in pharmacodynamic model; details: ATCC 49619, 48 h
[21] = tested on: Streptococcus pneumoniae; experiment: fAUC/MIC ratio of Streptococcus pneumoniae ATCC 49619 at 150 mg
[22] = Peak free concentration at 100 mg/24 hrs regimen in vitro PK model; assay type: ADME
[23] = tested on: Streptococcus pneumoniae; experiment: Bactericidal activity against Streptococcus pneumoniae ATCC 49619 with Parc S79Y mutation at fAUC/MIC of 35 after 24 hrs in pharmacodynamic model; details: ATCC 49619, 24 h
[24] = tested on: Streptococcus pneumoniae; experiment: Bactericidal activity against Streptococcus pneumoniae BSP-2443 with parC S52G, N91D mutation and gyrA S114G mutation at fAUC/MIC of 51 after 96 hrs in pharmacodynamic model; details: BSP2443, 96 h
[25] = tested on: Streptococcus pneumoniae; experiment: Bactericidal activity against Streptococcus pneumoniae ATCC 49619 with Parc S79Y mutation and gyrA S81F mutation at fAUC/MIC of 35 after 72 hrs in pharmacodynamic model; details: ATCC 49619, 72 h
[26] = tested on: Streptococcus pneumoniae; experiment: Susceptibility of Streptococcus pneumoniae BSP-2443 by microdilution method; assay type: functional; details: BSP2443
[27] = tested on: Streptococcus pneumoniae; experiment: Bactericidal activity against Streptococcus pneumoniae ATCC 49619 at fAUC/MIC of 60 after 24 hrs in pharmacodynamic model; details: ATCC 49619, 24 h
[28] = Peak free concentration at 400 mg/24 hrs regimen in vitro PK model; assay type: ADME
[29] = tested on: Streptococcus pneumoniae; experiment: Bactericidal activity against Streptococcus pneumoniae BSP-2443 with parC S52G, N91D mutation at fAUC/MIC of 51 after 72 hrs in pharmacodynamic model; details: BSP2443, 72 h
[30] = Half life at 175 mg/24 hrs regimen in vitro PK model; assay type: ADME
[31] = tested on: Streptococcus pneumoniae; experiment: Bactericidal activity against Streptococcus pneumoniae ATCC 49619 at fAUC/MIC of 66 after 24 to 96 hrs in pharmacodynamic model
[32] = Half life at 200 mg/24 hrs regimen in vitro PK model; assay type: ADME
[33] = tested on: Streptococcus pneumoniae; experiment: Bactericidal activity against Streptococcus pneumoniae ATCC 49619 with S79Y Parc mutation and S81F gyrA mutation at fAUC/MIC of 60 after 96 hrs in pharmacodynamic model; details: ATCC 49619, 96 h
[34] = Half life at 150 mg/24 hrs regimen in vitro PK model; assay type: ADME
[35] = tested on: Streptococcus pneumoniae; experiment: fAUC/MIC ratio of Streptococcus pneumoniae BSP-2443 at 75 mg
[36] = Peak free concentration at 50 mg/24 hrs regimen in vitro PK model; assay type: ADME
[37] = tested on: Streptococcus pneumoniae; experiment: Bactericidal activity against Streptococcus pneumoniae BSP-2443 at fAUC/MIC of 51.3 after 24 to 96 hrs in pharmacodynamic model; details: BSP2443
[38] = tested on: Streptococcus pneumoniae; experiment: Bactericidal activity against Streptococcus pneumoniae ATCC 49619 at fAUC/MIC of 37 after 24 to 48 hrs in pharmacodynamic model
[39] = tested on: Streptococcus pneumoniae; experiment: Bactericidal activity against Streptococcus pneumoniae BSP-2443 at fAUC/MIC of 34 after 24 to 48 hrs in pharmacodynamic model; details: BSP2443
[40] = tested on: Streptococcus pneumoniae; experiment: Bactericidal activity against Streptococcus pneumoniae ATCC 49619 at fAUC/MIC of 50.5 after 24 to 96 hrs in pharmacodynamic model
[41] = tested on: Streptococcus pneumoniae; experiment: Bactericidal activity against Streptococcus pneumoniae ATCC 49619 with parC S79Y mutation at fAUC/MIC of 37 after 96 hrs in pharmacodynamic model; details: ATCC 49619, 96 h
[42] = Half life at 75 mg/24 hrs regimen in vitro PK model; assay type: ADME
[43] = Half life at 50 mg/24 hrs regimen in vitro PK model; assay type: ADME
[44] = tested on: Streptococcus pneumoniae; experiment: fAUC/MIC ratio of Streptococcus pneumoniae ATCC 49610 at 320 mg
[45] = tested on: Streptococcus pneumoniae; experiment: Bactericidal activity against Streptococcus pneumoniae BSP-2443 at fAUC/MIC of 60.2 after 24 to 96 hrs in pharmacodynamic model; details: BSP2443
[46] = Half life at 320 mg/24 hrs regimen in vitro PK model; assay type: ADME
[47] = tested on: Streptococcus pneumoniae; experiment: fAUC/MIC ratio of Streptococcus pneumoniae ATCC 49610 at 75 mg
[48] = tested on: Streptococcus pneumoniae; experiment: fAUC/MIC ratio of Streptococcus pneumoniae ATCC 49610 at 250 mg
[49] = tested on: Streptococcus pneumoniae; experiment: Bactericidal activity against Streptococcus pneumoniae ATCC 49619 at fAUC/MIC of 78 after 24 to 96 hrs in pharmacodynamic model
[50] = tested on: Streptococcus pneumoniae; experiment: Bactericidal activity against Streptococcus pneumoniae ATCC 49619 at fAUC/MIC of 119 after 24 to 96 hrs in pharmacodynamic model
[51] = tested on: Streptococcus pneumoniae; experiment: Bactericidal activity against Streptococcus pneumoniae ATCC 49619 with parC S79Y mutation at fAUC/MIC of 37 after 72 hrs in pharmacodynamic model; details: ATCC 49619, 72 h
[52] = Peak free concentration at 250 mg/24 hrs regimen in vitro PK model; assay type: ADME
[53] = Half life at 250 mg/24 hrs regimen in vitro PK model; assay type: ADME
[54] = Peak free concentration at 75 mg/24 hrs regimen in vitro PK model; assay type: ADME
[55] = tested on: Streptococcus pneumoniae; experiment: fAUC/MIC ratio of Streptococcus pneumoniae BSP-2443 at 100 mg
[56] = tested on: Streptococcus pneumoniae; experiment: fAUC/MIC ratio of Streptococcus pneumoniae ATCC 49610 at 50 mg
[57] = tested on: Streptococcus pneumoniae; experiment: Bactericidal activity against Streptococcus pneumoniae ATCC 49619 at fAUC/MIC of 65.3 after 24 to 96 hrs in pharmacodynamic model
[58] = Peak free concentration at 320 mg/24 hrs regimen in vitro PK model; assay type: ADME
[59] = tested on: Streptococcus pneumoniae; experiment: Bactericidal activity against Streptococcus pneumoniae BSP-2443 with parC S79Y, S52G, N91D mutation and gyrA S114G mutation at fAUC/MIC of 34 after 72 to 96 hrs in pharmacodynamic model; details: BSP2443
[60] = tested on: Streptococcus pneumoniae; experiment: Bactericidal activity against Streptococcus pneumoniae ATCC 49619 at fAUC/MIC of 146 after 24 to 96 hrs in pharmacodynamic model
[61] = tested on: Streptococcus pneumoniae; experiment: fAUC/MIC ratio of Streptococcus pneumoniae BSP-2443 at 50 mg

COc1c(N2CCNC(C)C2)c(F)cc2c(=O)c(C(=O)O)cn(C3CC3)c12 (centres undefined) [GATIFLOXACIN]
MIC [1]: 0.25 µg/mL | fAUC/MIC [2]: 66 | fAUC/MIC [3]: 67 | MIC [4]: 0.19 µg/mL | MIC [5]: 0.025 µg/mL (≈ 0.0666 µM) | MIC [6]: 0.25 µg/mL | MIC [7]: 0.25 µg/mL | Activity [8]: 1.22 µg/mL | fAUC/MIC [9]: 51 | fAUC/MIC [10]: 35 | Activity [11]: 1.38 µg/mL | MIC [12]: 0.19 µg/mL | Activity [13]: 1.13 µg/mL | MIC [14]: 0.75 µg/mL | half-life [15]: 8.01 h | half-life [16]: 7.65 h | fAUC/MIC [17]: 62 | fAUC/MIC [18]: 144 | MIC [19]: 8 µg/mL | MIC [20]: 6 µg/mL | fAUC/MIC [21]: 60 | Activity [22]: 0.71 µg/mL | MIC [23]: 0.38 µg/mL | MIC [24]: 3 µg/mL | MIC [25]: 6 µg/mL | MIC [26]: 0.025 µg/mL (≈ 0.0666 µM) | MIC [27]: 0.25 µg/mL | Activity [28]: 2.79 µg/mL | MIC [29]: 0.38 µg/mL | half-life [30]: 7.57 h | MIC [31]: 0.19 µg/mL | half-life [32]: 8.65 h | MIC [33]: 4 µg/mL | half-life [34]: 8.16 h

CO/N=C1\CN(c2nc3c(cc2F)c(=O)c(C(=O)O)cn3C2CC2)CC1CN (centres undefined) [GEMIFLOXACIN]
fAUC/MIC [35]: 51.3 | Activity [36]: 0.12 µg/mL | MIC [37]: 0.03 µg/mL | MIC [38]: 0.03 µg/mL | MIC [39]: 0.03 µg/mL | MIC [40]: 0.03 µg/mL | MIC [41]: 0.25 µg/mL | half-life [42]: 7.19 h | MIC [5]: 0.025 µg/mL (≈ 0.0642 µM) | half-life [43]: 7.45 h | fAUC/MIC [44]: 146 | MIC [45]: 0.03 µg/mL | half-life [46]: 7.58 h | fAUC/MIC [10]: 65.3 | fAUC/MIC [47]: 50.5 | fAUC/MIC [48]: 119 | Activity [13]: 0.31 µg/mL | half-life [16]: 8.22 h | MIC [49]: 0.03 µg/mL | fAUC/MIC [21]: 78 | Activity [22]: 0.23 µg/mL | MIC [50]: 0.03 µg/mL | MIC [51]: 0.25 µg/mL | Activity [52]: 0.51 µg/mL | half-life [53]: 7.22 h | MIC [26]: 0.025 µg/mL (≈ 0.0642 µM) | Activity [54]: 0.17 µg/mL | fAUC/MIC [55]: 69.2 | fAUC/MIC [56]: 37 | MIC [57]: 0.03 µg/mL | half-life [34]: 7.5 h | Activity [58]: 0.62 µg/mL | MIC [59]: 0.125 µg/mL | MIC [60]: 0.03 µg/mL | fAUC/MIC [61]: 34
